Test results: PMC3306394 (PLoS ONE, 2012)
Like-named read-outs stand apart in the source and are kept apart here.

What was measured:
[1] = target: T1, HpSK E114A (Helicobacter pylori, UniProt P56073, E114A); format: biochemical
T1 construct: His6 (own knowledge: pQE30 vector gives an N-terminal MRGS-His6 tag); made in house; host or cells: E. coli
Protocol: (§1) SK activity was determined by coupling the release of ADP from the SK-catalyzed reaction to the oxidation of NADH using pyruvate kinase (EC 2.7.1.40) and lactate dehydrogenase (EC 1.1.1.27) as coupling enzymes. Shikimate-dependent oxidation of NADH was monitored by a decrease in A340 (ε = 6,200 M^−1 cm^−1). […] All assays were conducted in a 96-well microplate and analyzed with a spectrophotometer (FLUOstar OPTIMA, BMG LABTECH). The relative activity of wild-type HpSK was set to 100%.

[2] = target: T2, HpSK F48Y (Helicobacter pylori, UniProt P56073, F48Y); format: biochemical
T2 construct: His6 (own knowledge: pQE30 vector gives an N-terminal MRGS-His6 tag); made in house; host or cells: E. coli
Protocol: as §1

[3] = target: T3, wild-type HpSK (Helicobacter pylori shikimate kinase) (Helicobacter pylori, UniProt P56073); conditions: wild-type enzyme, cited from earlier work
T3 construct: His6 (own knowledge: the pQE30 vector gives an N-terminal MRGS-His6 tag); made in house; host or cells: E. coli (printed for the mutants; same procedures as for wild type)

[4] = target: T4, HpSK M10A (Helicobacter pylori, UniProt P56073, M10A); format: biochemical; conditions: apparent value
T4 construct: His6 (own knowledge: pQE30 vector gives an N-terminal MRGS-His6 tag); made in house; host or cells: E. coli
Protocol: as §1, with “enzymes.” for “enzymes. Shikimate-dependent oxidation of NADH was monitored by a decrease in A340 (ε = 6,200 M^−1 cm^−1).”

[5] = target: T5, HpSK R57A (Helicobacter pylori, UniProt P56073, R57A); assay: Isothermal titration calorimetry, R57A; format: binding; conditions: ITC, 25°C, ND = not detectable
T5 construct: His6 (own knowledge: pQE30 vector gives an N-terminal MRGS-His6 tag); made in house; host or cells: E. coli
Protocol: (§2) Titration experiments were performed by ITC using an iTC200 or VP-ITC instrument (MicroCal, Piscataway, NJ, USA), and a 0.2-ml (iTC200) or 1.4-ml (VP-ITC) sample cell containing the macromolecule solution. All proteins were prepared in a buffer containing 20 mM potassium phosphate, pH 7.3. Prior to the experiment, samples were filtered and degassed under vacuum for 10 min in a Thermo Vac system (Microcal). The sample cell was filled with sample protein solution (15 µM) or the working buffer. Procedures of iTC200 titrations with a ligand (450 µM) were as follows: an initial 1-µl injection (not included in data analysis) followed by 19 injections of 2 µl each, with 2-min intervals between injections. Similar procedures for VP-ITC titrations were also performed: an initial 2-µl injection followed by 24 injections of 10 µl each, with 3-min intervals between injections. The experiments were performed with a constant stirrer speed of 1000 rpm (iTC200) or 290 rpm (VP-ITC) at 25°C. The binding isotherms were fitted to a one-site binding model to obtain the thermodynamic parameters with the initial point discarded. Data analysis was conducted using Origin 7 software.

[6] = target: T6, HpSK R57K (Helicobacter pylori, UniProt P56073, R57K); assay: Isothermal titration calorimetry, R57K; format: binding; conditions: ITC, 25°C, ND = not detectable
T6 construct: His6 (own knowledge: pQE30 vector gives an N-terminal MRGS-His6 tag); made in house; host or cells: E. coli
Protocol: as §2

[7] = target: T7, HpSK R116K (Helicobacter pylori, UniProt P56073, R116K); assay: Isothermal titration calorimetry, R116K; format: binding; conditions: ITC, 25°C, ND = not detectable
T7 construct: His6 (own knowledge: pQE30 vector gives an N-terminal MRGS-His6 tag); made in house; host or cells: E. coli
Protocol: as §2

[8] = target: T8, HpSK D33E (Helicobacter pylori, UniProt P56073, D33E); assay: Isothermal titration calorimetry, D33E; format: binding; conditions: ITC, 25°C, ND = not detectable
T8 construct: His6 (own knowledge: pQE30 vector gives an N-terminal MRGS-His6 tag); made in house; host or cells: E. coli
Protocol: as §2

[9] = target: T9, HpSK F48A (Helicobacter pylori, UniProt P56073, F48A); assay: Isothermal titration calorimetry, F48A; format: binding; conditions: ITC, 25°C, ND = not detectable
T9 construct: His6 (own knowledge: pQE30 vector gives an N-terminal MRGS-His6 tag); made in house; host or cells: E. coli
Protocol: as §2

[10] = target: T1, HpSK E114A; assay: Isothermal titration calorimetry, E114A; format: binding; conditions: ITC, 25°C, ND = not detectable
Protocol: as §2

[11] = target: T2, HpSK F48Y; assay: Isothermal titration calorimetry, F48Y; format: binding; conditions: ITC, 25°C, ND = not detectable
Protocol: as §2

[12] = target: T4, HpSK M10A; assay: Isothermal titration calorimetry, M10A; format: binding; conditions: ITC, 25°C, ND = not detectable
Protocol: as §2

[13] = target: T10, HpSK R132A (Helicobacter pylori, UniProt P56073, R132A); assay: Isothermal titration calorimetry, R132A; format: binding; conditions: ITC, 25°C, ND = not detectable
T10 construct: His6 (own knowledge: pQE30 vector gives an N-terminal MRGS-His6 tag); made in house; host or cells: E. coli
Protocol: as §2

[14] = target: T11, HpSK D33A (Helicobacter pylori, UniProt P56073, D33A); assay: Isothermal titration calorimetry, D33A; format: binding; conditions: ITC, 25°C, ND = not detectable
T11 construct: His6 (own knowledge: pQE30 vector gives an N-terminal MRGS-His6 tag); made in house; host or cells: E. coli
Protocol: as §2

[15] = target: T12, wild-type HpSK (Helicobacter pylori, UniProt P56073); assay: Isothermal titration calorimetry, wild-type HpSK; format: binding
T12 construct: His6 (own knowledge: the pQE30 vector gives an N-terminal MRGS-His6 tag); made in house; host or cells: E. coli (printed for the mutants; same procedures as for wild type)
Protocol: as §2

[16] = target: T13, HpSK R132K (Helicobacter pylori, UniProt P56073, R132K); assay: Isothermal titration calorimetry, R132K; format: binding; conditions: ITC, 25°C, ND = not detectable
T13 construct: His6 (own knowledge: pQE30 vector gives an N-terminal MRGS-His6 tag); made in house; host or cells: E. coli
Protocol: as §2

[17] = target: T14, HpSK R116A (Helicobacter pylori, UniProt P56073, R116A); assay: Isothermal titration calorimetry, R116A; format: binding; conditions: ITC, 25°C, ND = not detectable
T14 construct: His6 (own knowledge: pQE30 vector gives an N-terminal MRGS-His6 tag); made in house; host or cells: E. coli
Protocol: as §2

[18] = apparent value, read-out: Km (MgATP)
[19] = read-out: Km (shikimate), apparent value

T4 sequence (P56073 whole entry M10A): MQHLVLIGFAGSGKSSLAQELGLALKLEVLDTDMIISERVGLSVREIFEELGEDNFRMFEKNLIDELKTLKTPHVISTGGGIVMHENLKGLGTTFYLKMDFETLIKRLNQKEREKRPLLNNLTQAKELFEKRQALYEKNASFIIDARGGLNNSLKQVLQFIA
T3 sequence (P56073 whole entry): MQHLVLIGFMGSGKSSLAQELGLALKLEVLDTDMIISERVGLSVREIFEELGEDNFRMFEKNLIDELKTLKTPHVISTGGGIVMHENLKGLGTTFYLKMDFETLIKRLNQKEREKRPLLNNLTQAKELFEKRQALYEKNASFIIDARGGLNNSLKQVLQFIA
T2 sequence (P56073 whole entry F48Y): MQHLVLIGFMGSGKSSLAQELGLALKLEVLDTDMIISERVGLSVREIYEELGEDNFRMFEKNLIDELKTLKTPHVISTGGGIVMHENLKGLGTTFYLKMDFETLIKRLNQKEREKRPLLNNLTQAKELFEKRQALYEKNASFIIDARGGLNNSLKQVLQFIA
T1 sequence (P56073 whole entry E114A): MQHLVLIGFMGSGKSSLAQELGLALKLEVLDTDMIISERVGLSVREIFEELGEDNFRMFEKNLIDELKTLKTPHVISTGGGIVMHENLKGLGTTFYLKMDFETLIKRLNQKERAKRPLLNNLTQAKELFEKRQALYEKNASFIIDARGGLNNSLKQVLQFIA
T6 sequence (P56073 whole entry R57K): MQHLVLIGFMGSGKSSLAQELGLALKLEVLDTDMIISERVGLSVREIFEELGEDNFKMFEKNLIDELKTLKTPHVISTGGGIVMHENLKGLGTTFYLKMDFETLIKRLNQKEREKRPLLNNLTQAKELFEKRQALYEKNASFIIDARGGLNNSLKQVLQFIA
T12 sequence (P56073 whole entry): as the sequence (P56073 whole entry) above
T10 sequence (P56073 whole entry R132A): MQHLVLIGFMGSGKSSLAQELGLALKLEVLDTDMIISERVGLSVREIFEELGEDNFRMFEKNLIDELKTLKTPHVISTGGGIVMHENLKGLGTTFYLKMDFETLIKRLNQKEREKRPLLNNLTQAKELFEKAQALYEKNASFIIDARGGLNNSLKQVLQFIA
T8 sequence (P56073 whole entry D33E): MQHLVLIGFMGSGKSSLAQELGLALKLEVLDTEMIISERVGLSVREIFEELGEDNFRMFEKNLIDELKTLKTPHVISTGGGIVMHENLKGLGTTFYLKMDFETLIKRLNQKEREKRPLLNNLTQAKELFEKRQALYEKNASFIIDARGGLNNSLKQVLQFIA
T7 sequence (P56073 whole entry R116K): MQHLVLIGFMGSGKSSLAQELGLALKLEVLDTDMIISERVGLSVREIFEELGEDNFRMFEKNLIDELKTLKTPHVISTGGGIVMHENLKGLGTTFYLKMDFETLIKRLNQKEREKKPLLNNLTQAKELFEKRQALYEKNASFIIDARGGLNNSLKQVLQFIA
T14 sequence (P56073 whole entry R116A): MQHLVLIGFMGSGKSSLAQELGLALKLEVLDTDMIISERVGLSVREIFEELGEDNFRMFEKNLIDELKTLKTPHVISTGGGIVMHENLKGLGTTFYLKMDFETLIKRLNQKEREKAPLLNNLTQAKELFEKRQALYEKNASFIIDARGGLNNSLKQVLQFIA
T9 sequence (P56073 whole entry F48A): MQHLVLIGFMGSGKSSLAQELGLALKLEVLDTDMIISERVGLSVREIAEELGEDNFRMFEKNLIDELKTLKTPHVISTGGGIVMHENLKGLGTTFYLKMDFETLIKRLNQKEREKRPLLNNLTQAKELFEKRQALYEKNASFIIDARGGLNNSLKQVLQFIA
T11 sequence (P56073 whole entry D33A): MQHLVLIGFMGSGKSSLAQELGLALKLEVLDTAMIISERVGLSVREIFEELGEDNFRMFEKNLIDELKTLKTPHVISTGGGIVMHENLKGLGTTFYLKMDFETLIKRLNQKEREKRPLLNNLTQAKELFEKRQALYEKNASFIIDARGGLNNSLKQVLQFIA
T5 sequence (P56073 whole entry R57A): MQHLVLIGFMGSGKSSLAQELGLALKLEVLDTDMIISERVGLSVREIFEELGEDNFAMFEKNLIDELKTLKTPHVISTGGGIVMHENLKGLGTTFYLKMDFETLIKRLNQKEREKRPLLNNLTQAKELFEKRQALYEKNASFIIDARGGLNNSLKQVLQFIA
T13 sequence (P56073 whole entry R132K): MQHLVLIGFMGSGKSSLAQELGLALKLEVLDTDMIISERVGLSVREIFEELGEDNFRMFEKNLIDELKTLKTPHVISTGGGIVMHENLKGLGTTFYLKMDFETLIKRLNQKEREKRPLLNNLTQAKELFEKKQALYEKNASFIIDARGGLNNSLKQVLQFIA

In the case of Nc1ncnc2c1ncn2[C@@H]1O[C@H](COP(=O)(O)OP(=O)(O)OP(=O)(O)O)[C@@H](O)[C@H]1O [ATP], the “V max(MgATP)” value ([1]; apparent value) is reported as 26 ± 2 µmol/min/mg, the Km [1, 18] is reported as 143 µM and the “V max(MgATP)” value ([2]; apparent value) is reported as 17 ± 1 µmol/min/mg. The Km [2, 18] was 231 µM, the “V max(MgATP)” value [3] was 26 ± 1 µmol/min/mg and the Km ([3]; read-out: Km (MgATP)) was 101 µM. For the same compound, the “V max(MgATP)” value [4] was 26 ± 1 µmol/min/mg and the Km ([4]; read-out: Km (MgATP)) was 293 µM.
In the case of O=C(O)C1=C[C@@H](O)[C@@H](O)[C@H](O)C1 [shikimate, shikimic acid], the Kd [5] is reported as “no heat release”, the “V max(shikimate)” value ([1]; apparent value) is reported as 23 ± 1 µmol/min/mg and the Km [1, 19] is reported as 39 µM. For the same compound, the “V max(shikimate)” value ([2]; apparent value) was 13 ± 2 µmol/min/mg, the Km [2, 19] was 291 µM and the Kd [6] was “no heat release”. The Km ([3]; read-out: Km (shikimate)) was 60 µM, the “V max(shikimate)” value [3] was 22 ± 1 µmol/min/mg and the Kd [7] was “no heat release”. For the same compound, the Kd [8] was “no heat release”, the Kd [9] was “lost binding activity” and the Kd [10] was 330 ± 30 nM. The “V max(shikimate)” value [4] was 16 ± 1 µmol/min/mg, the Kd [11] was 5200 ± 400 nM and the Kd [12] was 34000 ± 7000 nM. The Kd [13] was “no heat release”, the Kd [14] was “no heat release” and the Kd [15] was 320 ± 70 nM. For the same compound, the Kd [16] was “no heat release” and the Kd [17] was “no heat release”.
